For data set [1], the target named is DNA gyrase (Escherichia coli, UniProt P0AES4+P0AES6). Put plainly: Inhibition of Escherichia coli DNA gyrase supercoiling activity. The class given is protein-complex assay.
Data set [2] can be described thus: Inhibition of Escherichia coli topoisomerase 4 assessed as reduction in decatenation.
Data set [3] in a line: Cytotoxicity against human HepG2 cells assessed as reduction in cell viability for 24 hrs by Celltiter-Glo assay. In kind it is toxicity, cell-based. On the technique in general: In ATP-based viability assays light output follows the ATP content of the culture.
The test system of data set [4] is Acinetobacter baumannii. Put plainly: Antibacterial activity against Acinetobacter baumannii NCTC 13420 assessed as bacterial growth inhibition by CLSI protocol based assay. The class given is functional.
For data set [5], the system named is Klebsiella pneumoniae. In words: Antibacterial activity against Klebsiella pneumoniae ATCC 700603 assessed as bacterial growth inhibition by CLSI protocol based assay. The class given is functional.
Data set [6] relates to Pseudomonas aeruginosa. Put plainly: Antibacterial activity against Pseudomonas aeruginosa ATCC 27853 assessed as bacterial growth inhibition by CLSI protocol based assay. The class given is functional.
The test system of data set [7] is Escherichia coli. In words: Antibacterial activity against Escherichia coli W4573 assessed as bacterial growth inhibition by CLSI protocol based assay. The class given is functional.
The test system of data set [8] is Escherichia coli. In words: Antibacterial activity against Escherichia coli N43 assessed as bacterial growth inhibition by CLSI protocol based assay. The class given is functional.
Data set [9] has as its system Staphylococcus aureus. In words: Antibacterial activity against Staphylococcus aureus ATCC 29213 assessed as bacterial growth inhibition by CLSI protocol based assay. The class given is functional.
For data set [10], the target named is Voltage-gated inwardly rectifying potassium channel KCNH2 (Homo sapiens, UniProt Q12809). Put plainly: Inhibition of human ERG by Ionworks electrophysiology assay. The class given is toxicity. (The patch-clamp technique gives a direct electrical read-out from membranes.)
Data set [11] in a line: Lipophilicity, logD of the compound by shake flask assay. The class given is physicochemical. As to conditions: octanol/water.
Data set [12] in a line: Intrinsic clearance in mouse liver microsomes in presence of NADPH and measured upto 45 mins. In kind it is ADME, Microsome. As to conditions: read-out: CLH. Background: Microsomes from liver hold many membrane-bound enzymes, among them those of drug oxidation.
A short description of data set [13]: Intrinsic clearance in human liver microsomes in presence of NADPH and measured upto 45 mins. In kind it is ADME, Microsome. As to conditions: read-out: CLH.
Data set [14] can be described thus: Kinetic solubility of compound. In kind it is physicochemical. The conditions noted are these: read-out: Kinetic_solubility.
A short description of data set [15]: Plasma protein binding in mouse assessed as free fraction by equilibrium dialysis assay. In kind it is ADME, cell-free.
The target of data set [16] is DNA topoisomerase 2-alpha (Homo sapiens, UniProt P11388). Put plainly: Inhibition of human topoisomerase 2 assessed as reduction in decatenation.
The subject of data set [17] is Escherichia coli. In words: Resistance development in Escherichia coli ATCC25922 assessed as spontaneous resistance frequency at 4 times MIC by resistance development assay. The class given is functional.
The nature of data set [18]: Protein binding in mouse plasma by equilibrium dialysis assay. In kind it is ADME, cell-free. As to conditions: for fraction unbound: read-out: PPB (converted).
A short description of data set [19]: Protein binding in human plasma by equilibrium dialysis assay. As to conditions: read-out: PPB (converted). In kind it is ADME, cell-free.
The subject of data set [20] is Acinetobacter baumannii. In words: Antibacterial activity against […] Acinetobacter baumannii clinical isolate 43 assessed as bacterial growth inhibition by CLSI protocol based assay. The class given is functional.
The subject of data set [21] is Pseudomonas aeruginosa. In words: Antibacterial activity against Pseudomonas aeruginosa clinical isolate 42 assessed as bacterial growth inhibition by CLSI protocol based assay. The class given is functional.
In data set [22] the test system is Enterobacter cloacae. Put plainly: Antibacterial activity against Enterobacter cloacae clinical isolate 41 assessed as bacterial growth inhibition by CLSI protocol based assay. In kind it is functional.
For data set [23], the system named is Escherichia coli. In words: Antibacterial activity against Escherichia coli clinical isolate 42 assessed as bacterial growth inhibition by CLSI protocol based assay. The class given is functional.
Data set [24] relates to Klebsiella pneumoniae. In words: Antibacterial activity against Klebsiella pneumoniae clinical isolate 42 assessed as bacterial growth inhibition by CLSI protocol based assay. The class given is functional.
Data set [25] concerns Acinetobacter baumannii. In words: In vivo antibacterial activity against multidrug resistant Acinetobacter baumannii NCTC 13420 infected in mouse thigh infection model assessed in reduction in bacterial burden at 30 mg/kg, sc administered at 1 hr post infection and measured after 8 hrs (reference value: 5.4 log10CFU/g). In kind it is functional.
For data set [26], the system named is Acinetobacter baumannii. In words: In vivo antibacterial activity against multidrug resistant Acinetobacter baumannii NCTC 13420 infected in mouse thigh infection model assessed in reduction in bacterial burden at 45 mg/kg, sc administered at 1 hr post infection and measured after 8 hrs (reference value: 5.4 log10CFU/g). The class given is functional.
For data set [27], the system named is Acinetobacter baumannii. Put plainly: In vivo antibacterial activity against multidrug resistant Acinetobacter baumannii NCTC 13420 infected in mouse thigh infection model assessed in reduction in bacterial burden at 60 mg/kg, sc administered at 1 hr post infection and measured after 8 hrs (reference value: 5.4 log10CFU/g). The class given is functional.
Data set [28] relates to Acinetobacter baumannii. Put plainly: In vivo antibacterial activity against multidrug resistant Acinetobacter baumannii NCTC 13420 infected in mouse thigh infection model assessed in reduction in bacterial burden at 120 mg/kg, sc administered at 1 hr post infection and measured after 8 hrs (reference value: 5.4 log10CFU/g). The class given is functional.
The subject of data set [29] is Acinetobacter baumannii. Put plainly: In vivo antibacterial activity against multidrug resistant Acinetobacter baumannii NCTC 13420 infected in mouse thigh infection model assessed as log change in bacterial burden at 30 mg/kg, sc administered at 1 hr post infection and measured after 8 hrs relative to control. In kind it is functional.
Data set [30] relates to Acinetobacter baumannii. In words: In vivo antibacterial activity against multidrug resistant Acinetobacter baumannii NCTC 13420 infected in mouse thigh infection model assessed as log change in bacterial burden at 45 mg/kg, sc administered at 1 hr post infection and measured after 8 hrs relative to control. In kind it is functional.
Data set [31] deals with Acinetobacter baumannii. Put plainly: In vivo antibacterial activity against multidrug resistant Acinetobacter baumannii NCTC 13420 infected in mouse thigh infection model assessed as log change in bacterial burden at 60 mg/kg, sc administered at 1 hr post infection and measured after 8 hrs relative to control. In kind it is functional.
Data set [32] deals with Acinetobacter baumannii. In words: In vivo antibacterial activity against multidrug resistant Acinetobacter baumannii NCTC 13420 infected in mouse thigh infection model assessed as log change in bacterial burden at 120 mg/kg, sc administered at 1 hr post infection and measured after 8 hrs relative to control. The class given is functional.
Data set [33] has as its system Escherichia coli. Put plainly: Antibacterial activity against Escherichia coli ATCC25922 assessed as bacterial growth inhibition by CLSI protocol based assay. In kind it is functional.

Usually IC50 stands for the concentration needed to halve the response being measured. For orientation: MIC means the smallest concentration in the dilution series that meets the test's criterion for growth inhibition. For orientation: logD means the decadic logarithm of the distribution of all forms, ionised or not, between an organic phase and buffer at a given pH. Low values mean lower lipophilicity, high ones higher lipophilicity. A word on the MIC90: it is the lowest concentration that inhibits either 90% of growth or 90% of the strains tested, depending on the study.

Converted amounts (≈) assume the structure as drawn.

Chain of DNA topoisomerase 2-alpha (P11388 whole entry): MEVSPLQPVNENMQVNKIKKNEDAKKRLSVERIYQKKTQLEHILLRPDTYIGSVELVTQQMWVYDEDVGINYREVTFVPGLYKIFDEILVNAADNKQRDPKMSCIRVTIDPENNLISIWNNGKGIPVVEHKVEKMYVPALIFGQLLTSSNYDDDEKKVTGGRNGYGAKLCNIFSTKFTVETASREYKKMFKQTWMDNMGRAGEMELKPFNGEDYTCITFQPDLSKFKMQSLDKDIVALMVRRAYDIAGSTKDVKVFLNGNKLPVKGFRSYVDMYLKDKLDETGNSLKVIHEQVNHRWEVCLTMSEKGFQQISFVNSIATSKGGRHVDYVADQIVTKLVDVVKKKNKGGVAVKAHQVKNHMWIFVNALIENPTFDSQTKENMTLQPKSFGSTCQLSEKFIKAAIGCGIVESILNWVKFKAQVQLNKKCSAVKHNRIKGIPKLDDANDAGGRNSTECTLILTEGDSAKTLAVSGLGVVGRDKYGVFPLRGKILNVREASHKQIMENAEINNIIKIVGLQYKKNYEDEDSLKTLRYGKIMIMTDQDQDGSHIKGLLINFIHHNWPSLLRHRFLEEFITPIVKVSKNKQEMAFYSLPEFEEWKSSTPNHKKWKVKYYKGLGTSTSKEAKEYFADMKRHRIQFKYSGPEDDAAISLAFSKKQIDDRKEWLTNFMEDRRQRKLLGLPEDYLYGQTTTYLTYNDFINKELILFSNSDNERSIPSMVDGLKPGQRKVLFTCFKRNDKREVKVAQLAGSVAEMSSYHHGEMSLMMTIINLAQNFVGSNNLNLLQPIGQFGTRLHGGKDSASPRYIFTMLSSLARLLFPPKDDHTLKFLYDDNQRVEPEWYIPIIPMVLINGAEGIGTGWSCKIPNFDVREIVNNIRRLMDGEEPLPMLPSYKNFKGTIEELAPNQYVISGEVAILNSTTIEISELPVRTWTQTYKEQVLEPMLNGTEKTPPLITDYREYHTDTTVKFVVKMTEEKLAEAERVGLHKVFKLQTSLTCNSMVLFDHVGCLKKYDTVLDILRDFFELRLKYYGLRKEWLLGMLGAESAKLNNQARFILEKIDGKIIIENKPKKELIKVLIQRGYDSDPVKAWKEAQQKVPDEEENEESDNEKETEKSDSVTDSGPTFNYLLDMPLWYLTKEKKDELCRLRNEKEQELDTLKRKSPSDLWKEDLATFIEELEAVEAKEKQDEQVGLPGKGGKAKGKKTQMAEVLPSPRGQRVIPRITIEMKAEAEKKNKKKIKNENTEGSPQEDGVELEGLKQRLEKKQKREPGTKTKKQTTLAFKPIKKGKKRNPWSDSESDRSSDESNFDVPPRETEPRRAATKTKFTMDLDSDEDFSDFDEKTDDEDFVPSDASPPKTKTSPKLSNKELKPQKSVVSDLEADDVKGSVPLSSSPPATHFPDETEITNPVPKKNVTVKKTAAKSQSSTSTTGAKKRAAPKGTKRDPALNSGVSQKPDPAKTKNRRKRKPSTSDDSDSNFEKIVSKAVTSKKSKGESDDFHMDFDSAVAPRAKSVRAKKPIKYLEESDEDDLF
Chain of Voltage-gated inwardly rectifying potassium channel KCNH2 (Q12809 whole entry): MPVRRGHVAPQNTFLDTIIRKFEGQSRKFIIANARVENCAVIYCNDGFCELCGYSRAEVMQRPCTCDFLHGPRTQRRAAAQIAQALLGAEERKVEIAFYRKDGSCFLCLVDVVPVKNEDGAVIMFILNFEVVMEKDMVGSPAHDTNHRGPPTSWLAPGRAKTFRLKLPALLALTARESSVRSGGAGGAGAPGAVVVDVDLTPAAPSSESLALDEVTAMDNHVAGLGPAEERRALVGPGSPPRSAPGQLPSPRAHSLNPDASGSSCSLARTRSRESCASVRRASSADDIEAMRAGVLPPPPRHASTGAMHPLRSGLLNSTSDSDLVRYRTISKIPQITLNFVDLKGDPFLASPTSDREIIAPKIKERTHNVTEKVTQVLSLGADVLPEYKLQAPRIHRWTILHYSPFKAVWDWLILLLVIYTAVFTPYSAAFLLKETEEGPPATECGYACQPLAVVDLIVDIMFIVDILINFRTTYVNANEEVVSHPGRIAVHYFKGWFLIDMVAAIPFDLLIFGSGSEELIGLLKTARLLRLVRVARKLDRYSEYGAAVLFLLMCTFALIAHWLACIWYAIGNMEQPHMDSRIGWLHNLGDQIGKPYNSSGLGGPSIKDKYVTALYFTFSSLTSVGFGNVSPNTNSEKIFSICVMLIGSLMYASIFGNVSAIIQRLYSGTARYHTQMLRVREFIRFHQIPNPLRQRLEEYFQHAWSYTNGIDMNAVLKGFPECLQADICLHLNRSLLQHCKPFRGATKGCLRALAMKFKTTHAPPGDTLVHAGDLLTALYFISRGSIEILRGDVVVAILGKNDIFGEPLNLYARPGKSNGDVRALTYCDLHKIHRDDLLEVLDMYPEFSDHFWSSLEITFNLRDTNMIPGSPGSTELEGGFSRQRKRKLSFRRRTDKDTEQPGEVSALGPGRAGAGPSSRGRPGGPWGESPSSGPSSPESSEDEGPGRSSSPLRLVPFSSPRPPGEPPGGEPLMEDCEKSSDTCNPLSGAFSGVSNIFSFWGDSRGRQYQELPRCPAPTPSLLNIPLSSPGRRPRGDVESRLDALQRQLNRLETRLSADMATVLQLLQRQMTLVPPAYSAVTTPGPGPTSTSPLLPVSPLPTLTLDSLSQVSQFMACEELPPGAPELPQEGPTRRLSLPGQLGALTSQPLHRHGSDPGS

For `COc1cnc2ccc(=O)n(CCCN[C@H]3CC[C@H]4[C@H](C3)OC(=O)N4c3ccc4c(n3)NC(=O)CO4)c2c1`, the half-maximal inhibitory concentration (IC50) in data set [1] was 0.46 µM; in [2] it was 0.015 µM; in data set [10] it was more than 100 µM; in data set [16], more than 100 µM. The IC50 at 24 h in data set [3] is more than 64 µg/mL. Moreover, the minimum inhibitory concentration (MIC) in data set [4] was 0.5 µg/mL (≈ 0.961 µM); in [5], 8 µg/mL (≈ 15.4 µM); in [6], 2 µg/mL (≈ 3.84 µM); in data set [7] it was 0.25 µg/mL (≈ 0.48 µM); in data set [8] it was 0.008 µg/mL (≈ 0.0154 µM); in data set [9] it was 0.06 µg/mL (≈ 0.115 µM). This molecule also gave a logD in data set [11] of 0.94. The figures for the microsomal CLint in data set [12] and in data set [13] were 9 µL/min/mg and less than 3 µL/min/mg, respectively. Also, in [14], the solubility kinetic was more than 100 µM. For the same molecule, the fraction unbound in [15] is more than 0.3. In data set [17], the Activity is given as 3.2 10^-7No_unit.

`COc1ccc2ccc(=O)n(CCN[C@H]3CC[C@H]4[C@H](C3)OC(=O)N4c3ccc4c(n3)NC(=O)CO4)c2n1`: the IC50 came out at 0.055 µM in data set [1], 0.01 µM in data set [2], 5 µM in [10] and 14.4 µM in data set [16]. Moreover, the IC50 at 24 h in [3] is more than 64 µg/mL. Moreover, the MIC in [4] is 0.03 µg/mL (≈ 0.0592 µM); in [5] it was 4 µg/mL (≈ 7.9 µM); in data set [6], 1 µg/mL (≈ 1.97 µM); in data set [7], 0.12 µg/mL (≈ 0.237 µM); in [8], less than 0.008 µg/mL; in [9], 0.008 µg/mL (≈ 0.0158 µM). In addition, the MIC in data set [33] was found to be 0.06 µg/mL (≈ 0.118 µM). For the same molecule, in data set [11], the logD was 1.95. Moreover, in [18], the PPB worked out at 15.8%. The fraction unbound in data set [19] was 0.856. For the same molecule, the values for the microsomal CLint in data set [12] and in data set [13] were 264 µL/min/mg and 110 µL/min/mg, respectively. Further, the MIC90 in data set [20] came to 0.5 µg/mL (≈ 0.987 µM); in data set [21] it was 4 µg/mL (≈ 7.9 µM); in data set [22], 4 µg/mL (≈ 7.9 µM); in data set [23], 1 µg/mL (≈ 1.97 µM); in data set [24] it was 4 µg/mL (≈ 7.9 µM). In addition, the solubility kinetic in [14] is 76 µM (≈ 38.5 µg/mL). The Fu in [15] worked out at 15%. In addition, the Activity in [17] is reported as <2.4 10^-9No_unit; in data set [25], 7.1 log10CFU/g; in data set [26], 6.6 log10CFU/g; in data set [27], 4.4 log10CFU/g; in data set [28], 3.9 log10CFU/g; in data set [29], 1.7 log10CFU/g. In addition, the Activity in [30] was 1.2 log10CFU/g; in data set [31], -1 log10CFU/g; in data set [32], -1.5 log10CFU/g.

Turning to `COc1ccc2ccc(=O)n(CCN[C@H]3CC[C@H]4[C@@H](C3)OC(=O)N4c3ccc4c(n3)NC(=O)CO4)c2n1`, in [3], the IC50 at 24 h is more than 8 µg/mL. The MIC in data set [4] was 0.12 µg/mL (≈ 0.237 µM); in [5] it was 8 µg/mL (≈ 15.8 µM); in data set [6], 2 µg/mL (≈ 3.95 µM); in data set [7], 0.5 µg/mL (≈ 0.987 µM); in data set [8], less than 0.008 µg/mL; in data set [9] it was 0.03 µg/mL (≈ 0.0592 µM). Moreover, it took 3 µM to reach half-maximal inhibition in data set [10] (IC50). Also, in data set [11], the pH-dependent lipophilicity (logD) was determined as 2. Moreover, the results for the fraction unbound in data set [18] and in data set [19] were 0.878 and 0.919, respectively.

Turning to `O=c1ccc2ncc(=O)n3c2n1C[C@H]3CN1CCC(NCc2cc3c(cn2)OCCC3)CC1` [GEPOTIDACIN], the figures for the IC50 in [2], in data set [10] and in data set [16] were 0.035 µM, more than 100 µM and 55.2 µM, respectively. Also, the IC50 at 24 h in data set [3] is more than 128 µg/mL. In addition, the MIC was 16 µg/mL (≈ 35.7 µM) in data set [4]; 16 µg/mL (≈ 35.7 µM) in data set [5]; 2 µg/mL (≈ 4.46 µM) in [6]; 0.5 µg/mL (≈ 1.11 µM) in data set [7]; 0.015 µg/mL (≈ 0.0334 µM) in data set [8]; 0.5 µg/mL (≈ 1.11 µM) in data set [9]. The MIC in [33] is 0.03 µg/mL (≈ 0.0669 µM). For the same molecule, the logD in [11] is -0.63. Also, the fraction unbound in data set [18] and in [19] was less than 0.7 throughout. Further, the MIC90 turned out to be 32 µg/mL (≈ 71.3 µM) in data set [20]; 16 µg/mL (≈ 35.7 µM) in [21]; 16 µg/mL (≈ 35.7 µM) in data set [22]; 4 µg/mL (≈ 8.92 µM) in data set [23]; 16 µg/mL (≈ 35.7 µM) in [24]. The Activity in [17] was <2 10^-8No_unit.

With `C[C@H]1COc2c(N3CCN(C)CC3)c(F)cc3c(=O)c(C(=O)O)cn1c23.C[C@H]1COc2c(N3CCN(C)CC3)c(F)cc3c(=O)c(C(=O)O)cn1c23.O` [LEVOFLOXACIN], the MIC90 in data set [20] was found to be 16 µg/mL; in [21], 32 µg/mL; in data set [22], 32 µg/mL; in data set [23], 16 µg/mL; in data set [24] it was 16 µg/mL.

The values above are taken from ChEMBL document CHEMBL5143607, “Discovery and structure-activity relationships of a novel oxazolidinone class of bacterial type II topoisomerase inhibitors” (Bioorg Med Chem Lett, 2022).
